In the Kinase Knowledgebase extract (Sharma et al. 2016):

Target: MAPK14 (human) (UniProt Q16539)
Experiment: Inhibition of MAPK14 Kinase Activity

MAPK14 (human), sequence (Q16539 whole entry, looked up): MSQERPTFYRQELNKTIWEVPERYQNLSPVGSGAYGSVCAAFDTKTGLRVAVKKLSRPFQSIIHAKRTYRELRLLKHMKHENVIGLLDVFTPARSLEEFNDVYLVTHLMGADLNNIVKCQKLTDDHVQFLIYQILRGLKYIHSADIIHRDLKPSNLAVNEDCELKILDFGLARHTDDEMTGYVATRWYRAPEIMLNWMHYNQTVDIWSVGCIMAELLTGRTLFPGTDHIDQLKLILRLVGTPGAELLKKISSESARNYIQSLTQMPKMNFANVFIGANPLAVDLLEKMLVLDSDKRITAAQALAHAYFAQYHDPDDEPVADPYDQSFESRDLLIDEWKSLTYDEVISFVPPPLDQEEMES

| SMILES | IC50 |
| --- | --- |
| Cc1cc(C(=O)c2c(NC3CN(C(C)C)C3)sc3c2ccc(=O)n3-c2ccccc2)ccc1F | < 2000 nM |
| O=C(Nc1sc2c(ccc(=O)n2-c2ccccc2)c1C(=O)c1ccccc1)N[C@H]1CCNC1 | < 2000 nM |
| COc1ccccc1C(=O)c1c(NC(C)=O)sc2c1ccc(=O)n2-c1ccccc1 | < 2000 nM |
| Nc1sc2c(ccc(=O)n2-c2ccccc2Cl)c1C(=O)c1ccccc1 | < 2000 nM |
| Nc1sc2c(ccc(=O)n2-c2ccccc2)c1C(=O)c1ccccc1 | < 2000 nM |
| CC(=O)Nc1sc2c(ccc(=O)n2-c2ccccc2)c1C(=O)c1ccc(C)cc1 | < 2000 nM |
| O=C(c1ccccc1)c1c(NC2CNC2)sc2c1ccc(=O)n2-c1c(F)cccc1F | < 2000 nM |
| Cc1cc(C(=O)c2c(N)sc3c2ccc(=O)n3-c2ccccc2F)ccc1F | < 2000 nM |
| Cc1cccc(C(=O)c2c(C#N)sc3c2ccc(=O)n3-c2ccccc2)c1 | < 2000 nM |
| O=C(c1ccccc1)c1csc2c1ccc(=O)n2-c1ccccc1 | < 2000 nM |
| CC(=O)Nc1sc2c(ccc(=O)n2-c2ccccc2Cl)c1C(=O)c1ccc(F)c(C)c1 | < 2000 nM |
| N#Cc1sc2c(ccc(=O)n2-c2ccccc2)c1C(=O)c1ccccc1 | < 2000 nM |
| CN1CC(Nc2sc3c(ccc(=O)n3-c3ccccc3)c2C(=O)c2ccccc2)C1 | < 2000 nM |
| Cc1cc(C(=O)c2c(NC(=O)N3CC[C@H](N(C)C)C3)sc3c2ccc(=O)n3-c2ccccc2)ccc1F | < 2000 nM |
| Cc1cccc(C(=O)c2c(NC3CCN(C)CC3)sc3c2ccc(=O)n3-c2ccccc2)c1 | < 2000 nM |
| N#Cc1ccccc1C(=O)c1c(N)sc2c1ccc(=O)n2-c1ccccc1 | < 2000 nM |
| NC(=O)CNc1sc2c(ccc(=O)n2-c2ccccc2)c1C(=O)c1ccccc1 | < 2000 nM |
| Cc1cc(C(=O)c2c(NC3CCN(C)CC3)sc3c2ccc(=O)n3-c2ccc(F)cc2)ccc1F | < 2000 nM |
| CC(=O)Nc1sc2c(ccc(=O)n2-c2ccccc2)c1C(=O)c1ccc(F)c(Cl)c1 | < 2000 nM |
| N#Cc1cccc(C(=O)c2c(N)sc3c2ccc(=O)n3-c2ccccc2)c1 | < 2000 nM |
| O=C(c1ccccc1)c1c(N2CCOCC2)sc2c1ccc(=O)n2-c1ccccc1 | < 2000 nM |
| Cc1cccc(C(=O)c2c(N[C@H]3CCN(C)C3)sc3c2ccc(=O)n3-c2ccccc2)c1 | < 2000 nM |
| Nc1sc2c(ccc(=O)n2-c2cccnc2)c1C(=O)c1ccccc1 | < 2000 nM |

| SMILES | IC50 |
| --- | --- |
| O=C(c1ccccc1)c1c(NC(=O)[C@H]2CCCN2)sc2c1ccc(=O)n2-c1ccccc1 | < 2000 nM |
| Nc1sc2c(ccc(=O)n2-c2ccccc2)c1C(=O)c1ccccc1OC(F)(F)F | < 2000 nM |
| Cc1cccc(C(=O)c2c(NC(=O)NCC(C)(C)O)sc3c2ccc(=O)n3-c2ccccc2)c1 | < 2000 nM |
| O=C(c1ccccc1)c1c(NC(=O)C2CCNCC2)sc2c1ccc(=O)n2-c1ccccc1 | < 2000 nM |
| CC(C)(O)CNC(=O)Nc1sc2c(ccc(=O)n2-c2ccccc2)c1C(=O)c1ccccc1 | < 2000 nM |
| COc1ccccc1C(=O)c1c(N)sc2c1ccc(=O)n2-c1ccccc1 | < 2000 nM |
| O=C(c1ccccc1)c1c(N[C@H]2CCNC2)sc2c1ccc(=O)n2-c1ccccc1 | < 2000 nM |
| O=C(c1ccccc1)c1c(NC(=O)C2CCNCC2)sc2c1ccc(=O)n2CC1CC1 | < 2000 nM |
| CN1CCC[C@H](Nc2sc3c(ccc(=O)n3-c3ccccc3)c2C(=O)c2ccccc2)C1 | < 2000 nM |
| CNC(=O)CNc1sc2c(ccc(=O)n2-c2ccccc2)c1C(=O)c1ccccc1 | < 2000 nM |
| CN1CCC(Nc2sc3c(ccc(=O)n3-c3ccccc3)c2C(=O)c2ccccc2)CC1 | < 2000 nM |
| Nc1sc2c(ccc(=O)n2-c2ccccc2)c1C(=O)c1nccs1 | < 2000 nM |
| CN1CCC(C(=O)Nc2sc3c(ccc(=O)n3-c3ccccc3)c2C(=O)c2ccccc2)CC1 | < 2000 nM |
| CC(=O)Nc1sc2c(ccc(=O)n2-c2ccccc2)c1C(=O)c1ccccc1C | < 2000 nM |
| CC(C)(O)CNC(=O)Nc1sc2c(ccc(=O)n2CC2CC2)c1C(=O)c1ccccc1 | < 2000 nM |
| CC(=O)Nc1sc2c(ccc(=O)n2-c2ccccc2)c1C(=O)c1cccc(Br)c1 | < 2000 nM |
| NC(=O)c1sc2c(ccc(=O)n2-c2ccccc2)c1C(=O)c1ccc(F)cc1F | < 2000 nM |
| O=C(c1ccccc1)c1c(NC2CNC2)sc2c1ccc(=O)n2CC1CC1 | < 2000 nM |
| CN1CCC(Nc2sc3c(ccc(=O)n3-c3ccccc3)c2C(=O)c2ccc(F)c(Cl)c2)CC1 | < 2000 nM |
| Cc1cc(C(=O)c2c(NC3CCN(C(C)C)CC3)sc3c2ccc(=O)n3-c2ccccc2)ccc1F | < 2000 nM |
| Cc1ccc(C(=O)c2c(N)sc3c2ccc(=O)n3-c2ccccc2)cc1 | < 2000 nM |
| Nc1sc2c(ccc(=O)n2-c2ccc(F)cc2)c1C(=O)c1ccccc1 | < 2000 nM |
| Cc1cccc(C(=O)c2c(N3CCCCC3)sc3c2ccc(=O)n3-c2ccccc2)c1 | < 2000 nM |
